Measured values reported in publication PMC8042770, “Odorant Receptors for Detecting Flowering Plant Cues Are Functionally Conserved across Moths and Butterflies” (Molecular Biology and Evolution, 2020).
pEC50: −log10 of the molar value. Entries after “also recorded” stand apart in the source; their conditions may differ.

Key:
HarmOR42 = HarmOR42 (Helicoverpa armigera, UniProt A0A7T3KAF6); assay: Xenopus oocyte two-electrode voltage clamp, HarmOR42 + Orco; assay type: cell-based
Description: In preliminary screening, we used a high dosage (10^−4 M) of odorants. […] Most functional ORs responded robustly to multiple odorants. The strongest response (up to ∼6,000 nanoampere, nA) we detected was that of HarmOR42 toward the aromatic compound PAA. Further, the response profiles of the 28 HarmORs appeared to be highly differentiated, with no apparent overlap in their tuning spectra (with the exception of HarmOR12 and 36) according to functional cluster analysis (fig. 1A).
In order to expand our analysis on the response properties of HarmORs, we conducted dose–response analyses for the 28 functional HarmORs. […] Six HarmORs (OR3, 22, 48, 50, 56, and 66) could not be activated by any ligand at 10^−5 M. For the other 22 HarmORs, dose–response curves were generated and EC50 values of their major ligands were calculated (fig. 2A and supplementary table S2, Supplementary Material online). The HarmOR repertoire was highly efficient in terpene detection, since the lowest EC50 values were obtained for such compounds. Many of these terpenes have been proposed to be defensive chemicals of plants. […] DMNT is also one of the oviposition deterring compounds found in larval frass of some Lepidoptera species such as S. littoralis ([Anderson et al. 1993]).
Functional characterization of individual ORs was performed by heterologous expression in Xenopus oocytes combined with a two-electrode voltage-clamp system ([Wang et al. 2010]). Briefly, the full-length gene of each OR and Orco were subcloned into the eukaryotic expression vector pT7TS. cRNAs were generated from linearized expression vectors using the mMESSAGE mMACHINE T7 kit (Ambion, Austin, TX). Then, the cRNA mixture of ORx and Orco (27.6 ng each) was injected (Nanoliter 2010, WPI Inc., Sarasota, FL) into oocytes (stage V–VII). The respective Orcos of different species were used for functional studies of OR42 orthologs except for the four butterfly species (V. tameamea, P. xuthus, D. plexippus, and P. rapae), in which we used the Orco from P. xuthus. After incubation in nutrient solution at 18 °C for 3–5 days, the response profile of each oocyte to multiple plant odorants was recorded via a two-electrode voltage clamp (OC-725C oocyte clamp, Warner Instruments, Hamden, CT) at a holding potential of −80 mV. Data were acquired by using a Digidata 1440 A and were analyzed by pCLAMP 10.2 software (Axon Instruments Inc., Union City, CA).
Stock solutions of each odorant were prepared at 1 M using DMSO as a solvent, and each odorant was diluted in 1× Ringer’s solution to the indicated concentrations for electrophysiological recording. For functional screening of each HarmOR, a panel of 67 odorants belonging to three types of chemical classes: terpenes, aromatics, and aliphatics (short-chain fatty acid) were used (supplementary table S1, Supplementary Material online). For functional studies of OR42 orthologs from different species, six odorants including PAA, benzaldehyde, (E)-2-hexen-1-al, cinnamaldehyde, 2-phenylethanol, and heptanal were used.

[1] = tested on: HarmOR42 orthologs from 11 lepidopteran species; assay: Xenopus oocyte voltage clamp of HarmOR42 orthologs, six-odorant screen; assay type: cell-based; conditions: six compounds at 10^−4 M; 11 species
Description: We gathered additional experimental evidence to support this conservation of a PAA-sensing function by performing in vitro functional characterization of HarmOR42 orthologs from 11 lepidopteran species belonging to eight families (fig. 5B). […] It should be noted that the species studied here included three Noctuidae species (H. armigera, H. assulta, and Mythimna separata), four moths from Bombycidae (Bombyx mori), Crambidae (Chilo suppressalis), Sphingidae (Manduca sexta), and Tortricidae (Grapholitha molesta) ([Mitter et al. 2017]; [Kawahara et al. 2019]), and four diurnal butterfly species from diverse families (Vanessa tameamea, Papilio xuthus, Danaus plexippus, and Pieris rapae) (fig. 5B). […]
(§1) Functional characterization of individual ORs was performed by heterologous expression in Xenopus oocytes combined with a two-electrode voltage-clamp system ([Wang et al. 2010]). […] After incubation in nutrient solution at 18 °C for 3–5 days, the response profile of each oocyte to multiple plant odorants was recorded via a two-electrode voltage clamp (OC-725C oocyte clamp, Warner Instruments, Hamden, CT) at a holding potential of −80 mV. Data were acquired by using a Digidata 1440 A and were analyzed by pCLAMP 10.2 software (Axon Instruments Inc., Union City, CA). […]

SlitOR14 = tested on: SlitOR14; design: method as in de Fouchier et al. 2017; conditions: ref de Fouchier et al. 2017; cited from earlier work
EsemOR19 = assay: Xenopus oocyte voltage clamp of EsemOR19; assay type: cell-based, Eriocrania semipurpurella; conditions: 10^−4 M
Description: We also examined the response profile of EsemOR19 from E. semipurpurella, an OR that falls close to the HarmOR42-defined clade but that is not considered as a HarmOR42 ortholog. […] We also characterized the function of RnubOR13 from R. nubila (Trichoptera), a species from a sister order of Lepidoptera. […] Unfortunately, the putative E. semipurpurella OR that would consist of EsemOR34 + 35 and that falls at the base of the HarmOR42 clade could not be tested as it is incomplete.
Full-length coding sequences of 45 ORs (including Orco) of H. armigera, and OR42 and Orco orthologs in B. mori, H. assulta, G. molesta, and M. separate were amplified from the antennal cDNA of each species adults by PCR with specific primer pairs of each gene. […]
as §1

H. armigera moths = assay: Two-choice olfactometer behavioral assay, adult moths; assay type: in vivo, Helicoverpa armigera; conditions: females and males, 0.01 mg PAA or 50 μl 0.1% IAC, 10 h
Description: In a first step, we tested the attractiveness of PAA and a commercial mix of floral attractants, which takes PAA as its principal component (IAC) ([Cork 2016]; [Whitfield et al. 2019]), to H. armigera moths using a two-choice behavioral assay in a choice box (fig. 6A).
For adults, behavioral experiments were performed in a two-choice olfactometer according to a previous study with some modifications ([Del Socorro et al. 2010]). The olfactometer apparatus consisted of a main-chamber (60 cm × 30 cm × 25 cm) and two-choice subchambers under the main-chamber (20 cm × 15 cm × 25 cm) (fig. 6A). A metal gauze funnel (10 cm diameter) was inserted between the main-chamber and the subchambers. A hole at the bottom of the funnel allowed the moth to enter the subchamber. Clean humidified air flows (15 l/min) entered each subchamber and were exhausted by an exhaust fan. All the experiments were performed during the moth scotophase at 27 ± 1 °C. […] After 10 h, the number of moths in each subchamber was recorded. […] A selection ratio (SR) was calculated using the formula: SR = T/(T + C), where T represents the number of moths that entered the test subchamber and C represents the number of moths that entered the control subchamber. […] A quantity of 0.01 mg PAA was applied. […] The results were statistically analyzed using a χ^2 test.

Sequence of HarmOR42 (A0A7T3KAF6 entry or part of it): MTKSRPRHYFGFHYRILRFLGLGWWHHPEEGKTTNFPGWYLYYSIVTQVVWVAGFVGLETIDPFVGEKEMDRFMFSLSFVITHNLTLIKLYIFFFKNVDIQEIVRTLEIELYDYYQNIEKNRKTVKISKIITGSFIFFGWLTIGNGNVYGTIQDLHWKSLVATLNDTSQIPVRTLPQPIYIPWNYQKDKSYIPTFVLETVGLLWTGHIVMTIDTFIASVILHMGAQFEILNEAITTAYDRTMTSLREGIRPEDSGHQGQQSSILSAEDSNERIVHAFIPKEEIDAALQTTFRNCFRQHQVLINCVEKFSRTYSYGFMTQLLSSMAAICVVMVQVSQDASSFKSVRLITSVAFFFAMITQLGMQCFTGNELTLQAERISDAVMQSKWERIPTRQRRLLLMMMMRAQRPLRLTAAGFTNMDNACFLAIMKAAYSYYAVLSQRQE

Compound: O=CCc1ccccc1 [Phenylacetaldehyde]
- pEC50 (HarmOR42): 4.32
- ligand tuning of HarmOR42 (HarmOR42; 67 odorants at 10^−4 M, listed as PAA): largest response; also recorded: high specificity and sensitivity
- current response (HarmOR42; HarmOR42, odorant 10^−4 M, strongest response detected): ~6,000 nA
- ligand tuning of HarmOR42 orthologs [1]: robustly tuned to PAA as its best ligand
- response of SlitOR14 (SlitOR14): high specificity and sensitivity
- response of EsemOR19 (EsemOR19): no response
- attractiveness to wild-type moths vs solvent (H. armigera moths): more attractive to H. armigera moths than the solvent control, but the results were not statistically significant
